# Source: US8143254B2, “Methods for modulating ion channels” (Cornell Research Foundation, Inc., priority 2005, dated 2012)
# Tests used:
# oocytes = test: Toxicity / nonspecific leak in oocytes during dose-response recording; type: cell-based, Xenopus laevis
# Experimental: Whole-cell two-electrode voltage-clamp (TEVC) recordings were performed on X laevis oocytes expressing cloned Kv2.1, Kv3.4 or Kv4.2 using a Warner OC-725C amplifier and pClamp9 (Axon Instruments, Foster City, Calif.) software. Oocytes were bathed in a small-volume Warner oocyte bath and viewed with a Fisher dissection microscope. Bath solution for whole-cell oocyte recordings was (in mM): 96 NaCl, 4 KCl, 0.7 MgCl2, 1 CaCl2, 10 HEPES (pH 7.4); whole-cell oocyte TEVC pipettes were of 0.2-2 M resistance when filled with 3 M KCl. Experiments were performed 24-48 hours after cRNA injection. For assessment of current-voltage relationships in the absence or presence of dabco derivatives, oocytes were held at −80 mV, stepped for 2 seconds at voltages between −80 mV and +60 mV in 20 mV steps (Kv2.1) or between −80 and +50 mV in 10 mV steps (Kv3.4), then held for 500 ms at −40 mV before returning to the holding potential. For assessment of block during wash-in of dabco derivatives at a single voltage, oocytes were held at −80 mV, and repetitively stepped to 0 mV for 2 s with an interpulse interval of 10 s or 60 s as indicated. […]
# Kv2.1 Y380T = molecular target: T1, Kv2.1 Y380T (Rattus norvegicus, UniProt P15387, Y380T/Y384T); test: TEVC of oocytes expressing Y380T mutant Kv2.1; type: cell-based; settings: Y380T mutation in Kv2.1
# T1 construct: expressed in transfected cells; host or cells: Xenopus laevis oocytes (cRNA from pGA1)
# Text: Kv2.1 mutants were constructed using the QuickChange Multi Site-Directed Mutagenesis Kit (Stratagene, La Jolla, Calif.). Mutant Kv2.1 genes (in the pGA1 oocyte expression vector for oocyte expression) were sequenced in their entirety to confirm appropriate mutations and check for inadvertent mutations, and then subcloned into a wild-type pGA1 backbone. For oocyte expression, Kv3.4 was in pBF1, Kv4.2 was in pRAT. cRNA transcripts were produced from SacII-linearized (Kv2.1), Mlullinearized (Kv3.4) and Not1-linearized (Kv4.2) DNA templates using the T3 (Kv2.1), SP6 (Kv3.4) and T7 (Kv4.2) mMessage mMachine kits (Ambion, Austin, Tex.). cRNA was quantified by spectrophotometry and its size integrity verified by gel electophoresis. Defolliculated stage V and VI Xenopus laevis oocytes (purchased from Nasco, Grand Island, N.Y.) were injected with 5 ng of cRNA encoding Kv2.1, Kv3.4 or Kv4.2. […]
# Data analysis: Current-voltage relationships were obtained by measuring peak current during depolarizing pulses. Inhibition constants for DABCO blockers were calculated after generating a dose response curve by fitting with a logistic dose-response function y=A2+[A1−A2/1+(x/x0)^p], where A1 is the maximum response plateau, A2 is the minimum response plateau, x is drug concentrator, x0 is the IC50, and p the Hill slope. […]
# Kv2.1-K356C = molecular target: T2, Kv2.1-K356C (Rattus norvegicus, UniProt P15387, K360C); test: Cysteine protection experiments, K356C variant of Kv2.1 in oocytes; type: cell-based
# T2 construct: expressed in transfected cells; host or cells: Xenopus laevis oocytes (cRNA from pGA1)
# T2 sequence (P15387 1-857 K360C): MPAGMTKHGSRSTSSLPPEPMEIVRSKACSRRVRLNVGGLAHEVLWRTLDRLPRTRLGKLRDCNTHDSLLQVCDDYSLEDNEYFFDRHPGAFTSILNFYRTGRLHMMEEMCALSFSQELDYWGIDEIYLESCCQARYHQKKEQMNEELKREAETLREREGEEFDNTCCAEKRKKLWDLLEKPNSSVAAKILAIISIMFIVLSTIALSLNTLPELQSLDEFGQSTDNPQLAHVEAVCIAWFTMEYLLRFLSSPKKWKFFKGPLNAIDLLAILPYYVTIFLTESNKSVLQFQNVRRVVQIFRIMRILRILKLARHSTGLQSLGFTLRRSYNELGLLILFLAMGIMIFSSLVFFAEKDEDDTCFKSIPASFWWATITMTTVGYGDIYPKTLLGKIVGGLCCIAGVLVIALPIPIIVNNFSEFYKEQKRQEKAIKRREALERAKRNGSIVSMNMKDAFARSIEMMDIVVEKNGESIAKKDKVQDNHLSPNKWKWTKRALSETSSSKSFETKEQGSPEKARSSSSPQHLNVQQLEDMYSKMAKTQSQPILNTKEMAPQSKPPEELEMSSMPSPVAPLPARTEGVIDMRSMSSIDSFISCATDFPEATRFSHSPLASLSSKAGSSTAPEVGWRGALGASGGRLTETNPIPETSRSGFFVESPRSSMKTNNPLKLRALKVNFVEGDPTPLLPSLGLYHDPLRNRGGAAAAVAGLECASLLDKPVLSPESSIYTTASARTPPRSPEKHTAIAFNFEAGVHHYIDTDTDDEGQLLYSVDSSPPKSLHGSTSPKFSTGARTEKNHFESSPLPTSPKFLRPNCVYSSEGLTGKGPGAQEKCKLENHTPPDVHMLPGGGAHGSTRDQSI
# Text: Kv2.1 mutants were constructed using the QuickChange Multi Site-Directed Mutagenesis Kit (Stratagene, La Jolla, Calif.). Mutant Kv2.1 genes (in the pGA1 oocyte expression vector for oocyte expression) were sequenced in their entirety to confirm appropriate mutations and check for inadvertent mutations, and then subcloned into a wild-type pGA1 backbone. For oocyte expression, Kv3.4 was in pBF1, Kv4.2 was in pRAT. cRNA transcripts were produced from SacII-linearized (Kv2.1), Mlullinearized (Kv3.4) and Not1-linearized (Kv4.2) DNA templates using the T3 (Kv2.1), SP6 (Kv3.4) and T7 (Kv4.2) mMessage mMachine kits (Ambion, Austin, Tex.). cRNA was quantified by spectrophotometry and its size integrity verified by gel electophoresis. Defolliculated stage V and VI Xenopus laevis oocytes (purchased from Nasco, Grand Island, N.Y.) were injected with 5 ng of cRNA encoding Kv2.1, Kv3.4 or Kv4.2. Chinese Hamster Ovary (CHO) cells were transfected with 0.25 μg Kv2.1 cDNA, 2 μg blank plasmid and 2 μg Green fluorescent Protein in pBOB using Supetfect transfection reagent (Qiagen) 24 hours before whole-cell voltage clamp studies.
# Whole-cell two-electrode voltage-clamp (TEVC) recordings were performed on X laevis oocytes expressing cloned Kv2.1, Kv3.4 or Kv4.2 using a Warner OC-725C amplifier and pClamp9 (Axon Instruments, Foster City, Calif.) software. Oocytes were bathed in a small-volume Warner oocyte bath and viewed with a Fisher dissection microscope. Bath solution for whole-cell oocyte recordings was (in mM): 96 NaCl, 4 KCl, 0.7 MgCl2, 1 CaCl2, 10 HEPES (pH 7.4); whole-cell oocyte TEVC pipettes were of 0.2-2 M resistance when filled with 3 M KCl. Experiments were performed 24-48 hours after cRNA injection. For assessment of current-voltage relationships in the absence or presence of dabco derivatives, oocytes were held at −80 mV, stepped for 2 seconds at voltages between −80 mV and +60 mV in 20 mV steps (Kv2.1) or between −80 and +50 mV in 10 mV steps (Kv3.4), then held for 500 ms at −40 mV before returning to the holding potential. For assessment of block during wash-in of dabco derivatives at a single voltage, oocytes were held at −80 mV, and repetitively stepped to 0 mV for 2 s with an interpulse interval of 10 s or 60 s as indicated. A range of concentrations of dabco or dabco derivatives were washed in via the bath solution during repetitive single-voltage pulses (after an initial period of 5 pulses with control solution to ensure current stabilization) until equilibrium block was achieved, to establish dose-responses. Inhibited currents are compared to the current at the end of 5-pulse control period, thus some bar graphs show ‘control’ current values slightly less than 1, and with an error bar, to show how much currents deviate in the absence of drug. Washout was performed after the highest concentration of blocker was washed in. In cases where washout was achieved, only those recordings in which current returned to within 10% of original current level were used for construction of dose-response curves. For cysteine protection experiments using the K356C variant of Kv2.1, a dabco derivative (JC638.2a) was washed in to equilibrium block, followed by wash-in of a solution containing both JC638.2a and MTSET until no further changes in current were seen; following this the solution was washed out with standard bath solution. As controls for this protection analysis, JC638.2a or MTSET were washed in alone until equilibrium block, then washed out.
# [1] = K356C-Kv2.1, JC638.2α plus MTSET
smiles,measurement,setting,value
"C(CCCC[N+]12CCN(CC1)CC2)CCC[N+]12CCN(CC1)CC2 [TG27, 1,8-[bis(4-aza-1-azoniabicyclo[2.2.2]octanyl)]octane]",concentration at which nonspecific leak began,oocytes; Kv3.4 dose response,above 1 mM
"c1cc(C[N+]23CCN(CC2)CC3)ccc1C[N+]12CCN(CC1)CC2 [JC638.2α, α,α′-[bis(4-aza-1-azoniabicyclo[2.2.2]octanyl)]p-xylene]",IC50,Kv2.1 Y380T,185 ± 41 µM
same,slope of dose response curve,Kv2.1 Y380T,1.3
same,"current inhibition, administered alone",Kv2.1-K356C; K356C mutant,62±3%
same,reversibility of block with washout,"Kv2.1-K356C; K356C mutant, administered alone",reversed with washout
same,"current inhibition, co-application with MTSET after pre-application",Kv2.1-K356C; [1],84±1%
same,"reversibility with washout, co-application with MTSET",Kv2.1-K356C; [1],completely reversible with washout
C(CC[N+]12CCN(CC1)CC2)C[N+]12CCN(CC1)CC2 [TG26],toxicity to oocytes,oocytes; doses required to produce >50% block,toxic to the oocytes
